# From patent US7135615B2, “Chromosome doubling method” (The Curators of the University of Missouri, priority 2001, dated 2006)
# “And” between values parts separate entries of the source, which are not always exact repeats. Identical values can stand only once. Marks after values point to notes of the source that are not given here.
# How the values were obtained:
# [1] = tested on: B55 haploid plants; assay: nitrous oxide treatment of B55 haploids (initial study, Example 1)
# Experimental: Maize haploids were induced by the stock 6 procedure (Coe 1959) and separated by the color marker R1-scm2 (Kato, 1999c). […] Haploid seeds were surface sterilized with the fungicide Captan and germinated in moist vermiculite at 30° C. for two days. The germinated seeds were planted at the edge of a small pot filled with ProMix (FIG. 1).
# Application of a water mist to the plastic carpet may be used to prevent the occurrence of a static charge. […] The chamber was made from steel pipes and flanges designed for industrial use. Two 3 foot long pipes with flanges at both sides were connected to each other with 8 bolts to form the chamber. Iron covers were applied at the both ends. […] The chamber was preferably earthed.
# Because the gas from the tank was very cold, use of a long introductory tube (5 m) submerged in water was made to warm up the gas before introduction into the chamber. Application of paper wrapped moistened calcium hydroxide was also preferable to absorb accumulating carbon dioxide in the chamber.
# After N2O treatment the seedlings were kept at warm temperature (20–25° C.) in the greenhouse for two to three days and transplanted to the field or pots in the greenhouse. […] The plants were then grown and self pollinated. Cultivation and self pollination methods were the same as for diploid maize plants.
# [2] = tested on: maize haploid seedlings of origin A619; assay: doubled haploid production trial, A619 haploids (Example 4); details: 600 kPa, 2 days; for Ear: No. of kernels produced/ear: selfed
# Experimental: (§1) Ten to nineteen plants were treated for each plot. Self pollinations were conducted on these treated haploids if there were fertile sectors on the tassel. Pollen grains were collected carefully on a sheet of paper and transferred to the silks repeatedly. Silks and husks were cut back prior to pollination in order to permit maximum seed set. The numbers of fertile tassel and ear sectors, as well as the numbers of anthers and selfed kernels were recorded. Statistical analyses were as described above.
# [3] = tested on: maize haploid seedlings of origin A619 × B73; assay: doubled haploid production trial, A619 × B73 haploids (Example 4); details: 600 kPa, 2 days; for Ear: No. of kernels produced/ear: selfed
# Experimental: as §1
# [4] = tested on: maize haploid seedlings of origin Oh43; assay: doubled haploid production trial, Oh43 haploids (Example 4); details: for Ear: Plants with kernels after selfing % / Tassel: No. of fertile anthers extruded/tassel / Tassel: Plants with fertile sectors % / Ear: Plants with kernels after selfing No. / Tassel: Plants with fertile sectors No. / No. of plants Survived / Ear: No. of kernels produced/ear: 600 kPa, 2 days; for Ear: No. of kernels produced/ear: selfed
# Experimental: as §1
# [5] = Oh43 haploids, 5 leaf stage, 14 survived
# [6] = Oh43 haploids, 6 leaf stage, 12 survived
# [7] = Oh43 haploids, 7 leaf stage, 10 survived
smiles,measurement,setting,value
"[N-]=[N+]=O [nitrous oxide gas, nitrous oxide]",B55 haploid plants that could be self pollinated,"[1]; B55 haploids, 6 atm (600 kPa), two days, room temperature",70–90%
same,treated plants sensitive to drought following treatment,"[1]; after N2O treatment, upon transplantation",10%
same,induction of doubled sectors,"[1]; initial study, B55 haploids, 600 kPa",induced doubled sectors in both the tassel and the ear
same,damage to plants,"[1]; initial study, sealed chamber, room temperature",not damaged
same,Ear: Plants with kernels after selfing %,[2]; 5 leaf stage,17 n.s. %
same,Tassel: No. of fertile anthers extruded/tassel,[2]; 5 leaf stage,4.5 n.s /tassel
same,Tassel: No. of fertile sectors/tassel,[2]; 5 leaf stage,0.3 n.s. /tassel
same,Tassel: Plants with fertile sectors %,[2]; 5 leaf stage,25 n.s. %
same,Ear: Plants with kernels after selfing No.,"[2]; 5 leaf stage, 12 survived",2
same,Tassel: Plants with fertile sectors No.,"[2]; 5 leaf stage, 12 survived",3
same,No. of plants Survived,"[2]; 5 leaf stage, 12 treated",12
same,Ear: No. of kernels produced/ear,[2]; 5 leaf stage,0.3 n.s. /ear
same,Ear: Plants with kernels after selfing %,[2]; 6 leaf stage,33%
same,Tassel: No. of fertile anthers extruded/tassel,[2]; 6 leaf stage,3.2 /tassel
same,Tassel: No. of fertile sectors/tassel,[2]; 6 leaf stage,0.6 /tassel
same,Tassel: Plants with fertile sectors %,[2]; 6 leaf stage,56%
same,Ear: Plants with kernels after selfing No.,"[2]; 6 leaf stage, 9 survived",3
same,Tassel: Plants with fertile sectors No.,"[2]; 6 leaf stage, 9 survived",5
same,No. of plants Survived,"[2]; 6 leaf stage, 9 treated",9
same,Ear: No. of kernels produced/ear,[2]; 6 leaf stage,2.0 /ear
same,Ear: Plants with kernels after selfing %,[2]; 7 leaf stage,31%
same,Tassel: No. of fertile anthers extruded/tassel,[2]; 7 leaf stage,8.2 /tassel
same,Tassel: No. of fertile sectors/tassel,[2]; 7 leaf stage,1.6 /tassel
same,Tassel: Plants with fertile sectors %,[2]; 7 leaf stage,54%
same,Ear: Plants with kernels after selfing No.,"[2]; 7 leaf stage, 13 survived",4
same,Tassel: Plants with fertile sectors No.,"[2]; 7 leaf stage, 13 survived",7
same,No. of plants Survived,"[2]; 7 leaf stage, 14 treated",13
same,Ear: No. of kernels produced/ear,[2]; 7 leaf stage,1.6 /ear
same,Ear: Plants with kernels after selfing %,[3]; 5 leaf stage,36 n.s. %
same,Tassel: No. of fertile anthers extruded/tassel,[3]; 5 leaf stage,20.8** /tassel
same,Tassel: Plants with fertile sectors %,[3]; 5 leaf stage,73** %
same,Ear: Plants with kernels after selfing No.,"[3]; 5 leaf stage, 11 survived",4
same,Tassel: Plants with fertile sectors No.,"[3]; 5 leaf stage, 11 survived",8
same,No. of plants Survived,"[3]; 5 leaf stage, 12 treated",11
same,Ear: No. of kernels produced/ear,[3]; 5 leaf stage,4.2 n.s. /ear
same,Ear: Plants with kernels after selfing %,[3]; 6 leaf stage,36%
same,Tassel: No. of fertile anthers extruded/tassel,[3]; 6 leaf stage,34.5** /tassel
same,Tassel: No. of fertile sectors/tassel,[3]; 6 leaf stage,1.7** /tassel
same,Tassel: Plants with fertile sectors %,[3]; 6 leaf stage,73** %
same,Ear: Plants with kernels after selfing No.,"[3]; 6 leaf stage, 11 survived",4
same,Tassel: Plants with fertile sectors No.,"[3]; 6 leaf stage, 11 survived",8
same,No. of plants Survived,"[3]; 6 leaf stage, 11 treated",11
same,Ear: No. of kernels produced/ear,[3]; 6 leaf stage,6.2 /ear
same,Ear: Plants with kernels after selfing %,[3]; 7 leaf stage,17%
same,Tassel: No. of fertile anthers extruded/tassel,[3]; 7 leaf stage,4.8* /tassel
same,Tassel: Plants with fertile sectors %,[3]; 7 leaf stage,75** %
same,Ear: Plants with kernels after selfing No.,"[3]; 7 leaf stage, 12 survived",2
same,Tassel: Plants with fertile sectors No.,"[3]; 7 leaf stage, 12 survived",9
same,No. of plants Survived,"[3]; 7 leaf stage, 12 treated",12
same,Ear: No. of kernels produced/ear,[3]; 7 leaf stage,3.5 /ear
same,self pollination success rates after treatment,[4]; Oh43 haploids,20–30%
same,Ear: Plants with kernels after selfing %,"[4]; Oh43 haploids, 5 leaf stage",29 n.s %
same,Tassel: No. of fertile anthers extruded/tassel,"[4]; Oh43 haploids, 5 leaf stage",11.2* /tassel
same,Tassel: Plants with fertile sectors %,"[4]; Oh43 haploids, 5 leaf stage",57%
same,Ear: Plants with kernels after selfing No.,[4]; [5],4
same,Tassel: Plants with fertile sectors No.,[4]; [5],8
same,No. of plants Survived,"[4]; Oh43 haploids, 5 leaf stage, 19 treated",14
same,Ear: No. of kernels produced/ear,"[4]; Oh43 haploids, 5 leaf stage",0.6 n.s. /ear
same,Ear: Plants with kernels after selfing %,"[4]; Oh43 haploids, 6 leaf stage",17%
same,Tassel: No. of fertile anthers extruded/tassel,"[4]; Oh43 haploids, 6 leaf stage",5.7** /tassel
same,Tassel: Plants with fertile sectors %,"[4]; Oh43 haploids, 6 leaf stage",92** %
same,Ear: Plants with kernels after selfing No.,[4]; [6],2
same,Tassel: Plants with fertile sectors No.,[4]; [6],11
same,No. of plants Survived,"[4]; Oh43 haploids, 6 leaf stage, 16 treated",12
same,Ear: No. of kernels produced/ear,"[4]; Oh43 haploids, 6 leaf stage",1.0 /ear
same,Ear: Plants with kernels after selfing %,"[4]; Oh43 haploids, 7 leaf stage",10%
same,Tassel: No. of fertile anthers extruded/tassel,"[4]; Oh43 haploids, 7 leaf stage",2.6 /tassel
same,Tassel: Plants with fertile sectors %,"[4]; Oh43 haploids, 7 leaf stage",70* %
same,Ear: Plants with kernels after selfing No.,[4]; [7],1
same,Tassel: Plants with fertile sectors No.,[4]; [7],7
same,No. of plants Survived,"[4]; Oh43 haploids, 7 leaf stage, 15 treated",10
same,Ear: No. of kernels produced/ear,"[4]; Oh43 haploids, 7 leaf stage",0.1 /ear
same,Tassel: No. of fertile sectors/tassel,[4]; in vivo,0.8 /tassel and 1.3** /tassel and 1.0 /tassel
